Entries after “also recorded” stand apart in the source; their conditions may differ.
Key:
[1] = system: splenocytes from tgHLA-DR3 mice; conditions: in vivo; for # of mice responding: mouse
[2] = system: human PBMCs of individuals naturally exposed to C. burnetii; format: cell-based
DRB1*0301 = molecular target: T1, DRB1*0301 (Homo sapiens, UniProt P01903+P01911, A100K/A102G/A103R/A169T/F55Y/I96L/K41T/L162R/M171V/P40S/Q125H/Q178H/Q39Y/R42S/S66N/T106N/T262R/W38E/Y61H); test: HLA class II competition binding assay, DRB1*0301; conditions: peptides immunogenic in tgHLA-DR3 mice
T1 construct: purchased Benaroya Institute, Seattle, Wash

Q: Which “SFU, Mouse 1/3” value [1] does the source give for AENVLIIHNKTLAHRYLA [p31] here?
A: 0

Q: And the “SFU, Mouse 2/3” value [1]?
A: 14

Q: What about the “SFU, Mouse 3/3” value [1] of the same sequence?
A: 84

Q: And the “SI (stimulation index), Mouse 1/3” value [1]?
A: 0.88

Q: What about the “SI (stimulation index), Mouse 2/3” value [1] of the same sequence?
A: 1.72

Q: What about the “SI (stimulation index), Mouse 3/3” value [1] of the same sequence?
A: 4.32

Q: And the “# of mice responding” value [1]?
A: 1

Q: And the “Highly antigenic / highly reactive peptide in the human cohort” value [2]?
A: highly reactive

Q: For AIYFIGWYANLAHIKLGIS [p9], which “Recognition of HLA class II peptide by any subject” value (from here on “Recognition of HLA class II peptide”) [2] is on record?
A: not recognized by any subject

Q: What does the source list for DGRLEQLNSQNQQLQ [p33]?
A: Donors recognizing peptides recognized only within group C [2]: single; Donors recognizing peptides recognized solely by past asymptomatic subjects [2]: 1/33; Human immunoreactive in at least one IGRA+ donor (category) [2]: at least one IGRA + donor

Q: For DHAYKLAVSSTKSMT [p42], which “Donors recognizing peptides recognized solely by past asymptomatic subjects” value [2] is on record?
A: 3/33

Q: Which “Recognition of HLA class II peptide” value [2] does the source give for DQRITQLKNLNSNNSDSSNDN [p49] here?
A: not recognized by any subject

Q: Which “Highly antigenic / highly reactive peptide in the human cohort” value [2] does the source give for EAVYKGFTPLKAEDIAEA [p19] here?
A: highly antigenic

Q: Which results are given for EHTIVVNASASEAAALQ [p10]?
A: SFU, Mouse 1/3 [1]: 256; SFU, Mouse 2/3 [1]: 82; SFU, Mouse 3/3 [1]: 43; SI (stimulation index), Mouse 1/3 [1]: 5.80; SI (stimulation index), Mouse 2/3 [1]: 4.51; SI (stimulation index), Mouse 3/3 [1]: 2.00; # of mice responding [1]: 2; Donors recognizing peptides recognized only within group C [2]: multiple donors; Human immunoreactive in at least one IGRA+ donor (category) [2]: at least one IGRA + donor

Q: Which “Donors recognizing peptides recognized solely by past asymptomatic subjects” value [2] does the source give for FTFRSQDSRRVQEW [p13] here?
A: 1/33

Q: And the “Human immunoreactive in at least one IGRA+ donor (category)” value (from here on “Human immunoreactive”) [2]?
A: at least one IGRA + donor

Q: How did the “Human immunoreactive” value [2] turn out when GLSWLTILKKRNNYRDSFN [p44] was run?
A: at least one IGRA + donor

Q: Which results are given for GVAYTYNRANAGLPTNK [p45]?
A: Highly antigenic / highly reactive peptide in the human cohort [2]: highly antigenic; Number of IGRA+ subjects recognizing the peptide [2]: 7/56; Proportion of IGRA+ donors with IFNγ recall response to the peptide, SI cutoff of 2 [2]: 12.5%

Q: With IARYFMVNISQLIGEE [p21] as the sequence, how does the “Number of IGRA+ subjects recognizing the peptide” value [2] read?
A: 8/56

Q: And the “Number of IGRA− subjects recognizing the peptide” value [2]?
A: 3/21

Q: And the “Proportion of IGRA+ donors with IFNγ recall response to the peptide, SI cutoff of 2” value [2]?
A: 14.3%

Q: And the “Recall response frequency in IGRA− donors” value [2]?
A: 14.3%

Q: IDHLQQMTRQQVAMQTHK [p36] was tested. Which “Binding to DRB1*0301 in vitro” value (DRB1*0301) did it give?
A: all except one (p36) also showed binding

Q: What about the “SFU, Mouse 1/3” value [1] of the same sequence?
A: 52

Q: And the “SFU, Mouse 2/3” value [1]?
A: 55

Q: What about the “SFU, Mouse 3/3” value [1] of the same sequence?
A: 0

Q: And the “SI (stimulation index), Mouse 1/3” value [1]?
A: 3.44

Q: What about the “SI (stimulation index), Mouse 2/3” value [1] of the same sequence?
A: 3.86

Q: What about the “SI (stimulation index), Mouse 3/3” value [1] of the same sequence?
A: 0.86

Q: What about the “# of mice responding” value [1] of the same sequence?
A: 2

Q: And the “Human immunoreactive” value [2]?
A: at least one IGRA + donor

Q: IKGWQEALTRMKPGAIWEI [p8] was tested. Which “Human immunoreactive” value [2] did it give?
A: at least one IGRA + donor

Q: For ISLLVFKNSHRVQLWAK [p28], which “SFU, Mouse 1/3” value [1] is on record?
A: 63

Q: What about the “SFU, Mouse 2/3” value [1] of the same sequence?
A: 54

Q: And the “SFU, Mouse 3/3” value [1]?
A: 41

Q: And the “SI (stimulation index), Mouse 1/3” value [1]?
A: 3.76

Q: What about the “SI (stimulation index), Mouse 2/3” value [1] of the same sequence?
A: 3.79

Q: What about the “SI (stimulation index), Mouse 3/3” value [1] of the same sequence?
A: 2.63

Q: And the “# of mice responding” value [1]?
A: 2

Q: And the “Donors recognizing peptides recognized solely by past asymptomatic subjects” value [2]?
A: 1/33

Q: And the “Human immunoreactive” value [2]?
A: at least one IGRA + donor

Q: Which results are given for KDDILEAVANMSVMDV [p3]?
A: Donors recognizing peptides recognized only within group C [2]: single; Human immunoreactive in at least one IGRA+ donor (category) [2]: at least one IGRA + donor

Q: Which “Human immunoreactive” value [2] does the source give for LAQYRELEAFSQFAS [p5] here?
A: at least one IGRA + donor

Q: What does the source list for LKDVVALRNQAQTAK [p41]?
A: SFU, Mouse 1/3 [1]: 87; SFU, Mouse 2/3 [1]: 30; SFU, Mouse 3/3 [1]: 0; SI (stimulation index), Mouse 1/3 [1]: 5.06; SI (stimulation index), Mouse 2/3 [1]: 2.55; SI (stimulation index), Mouse 3/3 [1]: 0.98; # of mice responding [1]: 1; Human immunoreactive in at least one IGRA+ donor (category) [2]: at least one IGRA + donor

Q: How did the “SFU, Mouse 1/3” value [1] turn out when LKPFHFISSPTRDLQIA [p16] was run?
A: 180

Q: What about the “SFU, Mouse 2/3” value [1] of the same sequence?
A: 27

Q: What about the “SFU, Mouse 3/3” value [1] of the same sequence?
A: 19

Q: And the “SI (stimulation index), Mouse 1/3” value [1]?
A: 8.94

Q: What about the “SI (stimulation index), Mouse 2/3” value [1] of the same sequence?
A: 2.05

Q: And the “SI (stimulation index), Mouse 3/3” value [1]?
A: 1.94

Q: And the “# of mice responding” value [1]?
A: 1

Q: What about the “Highly antigenic / highly reactive peptide in the human cohort” value [2] of the same sequence?
A: highly reactive

Q: And the “Human immunoreactive” value [2]?
A: at least one IGRA + donor

Q: LSSIIHKLTSFSKTEA [p38] was tested. Which “Highly antigenic / highly reactive peptide in the human cohort” value [2] did it give?
A: highly antigenic

Q: How did the “Highly antigenic / highly reactive peptide in the human cohort” value [2] turn out when MMEHLQNITNLVSTGRQGA [p15] was run?
A: highly antigenic

Q: What does the source list for NAGIIRNKLKIQATIN [p43]?
A: SFU, Mouse 1/3 [1]: 135; SFU, Mouse 2/3 [1]: 65; SFU, Mouse 3/3 [1]: 116; SI (stimulation index), Mouse 1/3 [1]: 4.88; SI (stimulation index), Mouse 2/3 [1]: 3.04; SI (stimulation index), Mouse 3/3 [1]: 4.48; # of mice responding [1]: 3; Donors recognizing peptides recognized solely by past asymptomatic subjects [2]: 3/33

Q: Which “Recognition of HLA class II peptide” value [2] does the source give for PAKINLARTYIAMED [p34] here?
A: not recognized by any subject

Q: With PDYVLNAVNHIRYKP [p14] as the sequence, how does the “SFU, Mouse 1/3” value [1] read?
A: 157

Q: What about the “SFU, Mouse 2/3” value [1] of the same sequence?
A: 371

Q: And the “SFU, Mouse 3/3” value [1]?
A: 11

Q: What about the “SI (stimulation index), Mouse 1/3” value [1] of the same sequence?
A: 7.94

Q: What about the “SI (stimulation index), Mouse 2/3” value [1] of the same sequence?
A: 20.21

Q: What about the “SI (stimulation index), Mouse 3/3” value [1] of the same sequence?
A: 1.42

Q: What about the “# of mice responding” value [1] of the same sequence?
A: 2

Q: What about the “Highly antigenic / highly reactive peptide in the human cohort” value [2] of the same sequence?
A: highly reactive; also recorded: highly antigenic

Q: How did the “Recognition of HLA class II peptide” value [2] turn out when PITKKQLKTMSNYEVIAK [p11] was run?
A: not recognized by any subject

Q: QELEVAQNKAMSDFM [p39] was tested. Which “Human immunoreactive” value [2] did it give?
A: at least one IGRA + donor

Q: With QGHIINIGSISSHQV [p18] as the sequence, how does the “Highly antigenic / highly reactive peptide in the human cohort” value [2] read?
A: highly antigenic

Q: With QNAFQLQETIVSTEN [p40] as the sequence, how does the “Recognition of HLA class II peptide” value [2] read?
A: not recognized by any subject

Q: REAVLFLVTIKELLEDP [p23] was tested. Which “SFU, Mouse 1/3” value [1] did it give?
A: 69

Q: What about the “SFU, Mouse 2/3” value [1] of the same sequence?
A: 21

Q: And the “SFU, Mouse 3/3” value [1]?
A: 63

Q: What about the “SI (stimulation index), Mouse 1/3” value [1] of the same sequence?
A: 2.30

Q: What about the “SI (stimulation index), Mouse 2/3” value [1] of the same sequence?
A: 1.89

Q: And the “SI (stimulation index), Mouse 3/3” value [1]?
A: 2.47

Q: And the “# of mice responding” value [1]?
A: 2

Q: What about the “Highly antigenic / highly reactive peptide in the human cohort” value [2] of the same sequence?
A: highly antigenic

Q: With RLGFMSFFTKAVVEALKRF [p22] as the sequence, how does the “Highly antigenic / highly reactive peptide in the human cohort” value [2] read?
A: highly reactive; also recorded: highly antigenic

Q: How did the “Donors recognizing peptides recognized solely by past asymptomatic subjects” value [2] turn out when SDMWQALLAGKSGVK [p25] was run?
A: 3/33

Q: And the “Human immunoreactive” value [2]?
A: at least one IGRA + donor

Q: Which “Donors recognizing peptides recognized only within group C” value [2] does the source give for SEQITLQTAEKVGLNVA [p1] here?
A: multiple donors

Q: And the “Human immunoreactive” value [2]?
A: at least one IGRA + donor

Q: With SHEVLHAMSRGVEVLA [p6] as the sequence, how does the “Donors recognizing peptides recognized only within group C” value [2] read?
A: multiple donors

Q: With SRAFLTANKNKPGVKT [p7] as the sequence, how does the “Human immunoreactive” value [2] read?
A: at least one IGRA + donor

Q: Which “SFU, Mouse 1/3” value [1] does the source give for TGEIVKMINQAKQSIYVQG [p32] here?
A: 64

Q: What about the “SFU, Mouse 2/3” value [1] of the same sequence?
A: 70

Q: And the “SFU, Mouse 3/3” value [1]?
A: 28

Q: What about the “SI (stimulation index), Mouse 1/3” value [1] of the same sequence?
A: 3.82

Q: And the “SI (stimulation index), Mouse 2/3” value [1]?
A: 4.62

Q: And the “SI (stimulation index), Mouse 3/3” value [1]?
A: 2.11

Q: What about the “# of mice responding” value [1] of the same sequence?
A: 2

Q: And the “Human immunoreactive” value [2]?
A: at least one IGRA + donor

Q: TPTFVIGNKALTKFGF [p2] was tested. Which “SFU, Mouse 1/3” value [1] did it give?
A: 120

Q: What about the “SFU, Mouse 2/3” value [1] of the same sequence?
A: 141

Q: What about the “SFU, Mouse 3/3” value [1] of the same sequence?
A: 18

Q: What about the “SI (stimulation index), Mouse 1/3” value [1] of the same sequence?
A: 6.63

Q: What about the “SI (stimulation index), Mouse 2/3” value [1] of the same sequence?
A: 8.28

Q: And the “SI (stimulation index), Mouse 3/3” value [1]?
A: 1.53

Q: And the “# of mice responding” value [1]?
A: 2

Q: What about the “Highly antigenic / highly reactive peptide in the human cohort” value [2] of the same sequence?
A: highly reactive

Q: For VAKLRGDLSSIIHKL [p37], which “Highly antigenic / highly reactive peptide in the human cohort” value [2] is on record?
A: highly antigenic

Q: How did the “Donors recognizing peptides recognized solely by past asymptomatic subjects” value [2] turn out when VARVSRLKDNFVVLEISKGTEITVQ [p29] was run?
A: 1/33

Q: And the “Human immunoreactive” value [2]?
A: at least one IGRA + donor

Q: For VFNITLQKVMAPELPVL [p35], which “Recognition of HLA class II peptide” value [2] is on record?
A: not recognized by any subject

Q: VPGYRNASSKRFVAP [p46] was tested. Which “Highly antigenic / highly reactive peptide in the human cohort” value [2] did it give?
A: highly antigenic

Reference: patent US11690902B2 (priority 2018, dated 2023)
